Assay results reported in patent publication US11566007B2, “Ras inhibitors” (Revolution Medicines, Inc., priority 2019, dated 2023).
pIC50: −log10 of the molar value. Where two headings read alike, the source gives them in different places.

Key:
[1] = tested on: NCI-H358 (K-Ras G12C); assay: CellTiter-Glo cell viability assay, NCI-H358; type: cell-based, human; settings: Homo sapiens, NCI-H358, 120 h, class symbols; for pIC50: NCI-H358, 5-day treatment, read-out: Additional H358 Cell Viability assay data (K-Ras G12C, IC50)
Outline: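 Viability measured by CellTiter-Glo luminescence on day 5 following direct addition of compound to plated cells. Values expressed as percent of mean DMSO signal; curves fitted with a four-parameter logistic model.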

[2] = target: K-Ras G12C (Homo sapiens (Human), UniProt P01116+P62937, G12C); assay: Ras-Raf (BRAF RBD) disruption / FRET / MOA assay, KRAS G12C; type: biochemical; settings: KRAS G12C, Ras-Raf disruption/FRET/MOA assay
Outline: (§1)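 Compound-driven ternary complex of nucleotide-loaded Ras with cyclophilin A, disrupting BRAF RBD binding. 10-point 3-fold dilution from 30 μM final, 3 h at 25° C, then anti-His Eu-W1024 (10 nM) and anti-GST allophycocyanin (50 nM) for 1.5 h. IC50 from TR-FRET ratio decrease versus DMSO.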

[3] = target: KRAS G12D (Homo sapiens (Human), UniProt P01116+P62937, G12D); assay: Ras-Raf (BRAF RBD) disruption / FRET / MOA assay, KRAS G12D; type: biochemical; settings: class symbols
Outline: as §1

[4] = target: KRAS G12V (Homo sapiens (Human), UniProt P01116+P62937, G12V); assay: Ras-Raf (BRAF RBD) disruption / FRET / MOA assay, KRAS G12V; type: biochemical
Outline: as §1

[5] = target: NRAS G12C (Homo sapiens (Human), UniProt P01111+P62937, G12C); assay: Ras-Raf (BRAF RBD) disruption / FRET / MOA assay, NRAS G12C; type: biochemical
Outline: as §1

[6] = target: NRAS Q61K (Homo sapiens (Human), UniProt P01111+P62937, Q61K); assay: Ras-Raf (BRAF RBD) disruption / FRET / MOA assay, NRAS Q61K; type: biochemical; settings: NRAS Q61K; Ras-Raf disruption/FRET/MOA assay; read-out: IC50* NRAS Q61K FRET data
Outline: (§2)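 Compounds (30 μM top final, 10-point 3-fold dilutions) incubated 3 h at 25° C with nucleotide-loaded Ras, cyclophilin A and BRAF RBD. Detection with 10 nM anti-His Eu-W1024 and 50 nM anti-GST allophycocyanin over another 1.5 h. Lowered TR-FRET ratio relative to DMSO wells gives IC50.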

[7] = target: NRAS WT (Homo sapiens (Human), UniProt P01111+P62937); assay: Ras-Raf (BRAF RBD) disruption / FRET / MOA assay, NRAS WT; type: biochemical; settings: read-out: IC50* NRAS WT FRET data
Outline: as §2

[8] = read-out: IC50* KRAS G12C FRET data
[9] = Ras-Raf disruption/FRET/MOA assay, read-out: KRAS G12D FRET data IC50
[10] = read-out: IC50* KRAS G12V FRET data
[11] = read-out: IC50* NRAS G12C FRET data

Chain of NRAS Q61K (P01111 whole entry Q61K): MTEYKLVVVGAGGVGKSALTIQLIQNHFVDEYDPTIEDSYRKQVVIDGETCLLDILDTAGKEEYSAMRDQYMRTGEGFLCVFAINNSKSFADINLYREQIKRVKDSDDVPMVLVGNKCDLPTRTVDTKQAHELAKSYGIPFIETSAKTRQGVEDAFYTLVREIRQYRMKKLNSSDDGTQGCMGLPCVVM
Chain of NRAS Q61K (P62937 whole entry): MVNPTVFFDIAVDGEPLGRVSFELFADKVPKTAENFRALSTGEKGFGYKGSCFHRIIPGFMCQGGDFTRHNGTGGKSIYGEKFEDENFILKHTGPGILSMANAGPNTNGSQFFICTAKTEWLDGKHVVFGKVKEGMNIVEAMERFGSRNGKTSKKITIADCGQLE
Chain of KRAS G12V (P01116-2 other isoform, or with tags, fused parts or gaps G12V): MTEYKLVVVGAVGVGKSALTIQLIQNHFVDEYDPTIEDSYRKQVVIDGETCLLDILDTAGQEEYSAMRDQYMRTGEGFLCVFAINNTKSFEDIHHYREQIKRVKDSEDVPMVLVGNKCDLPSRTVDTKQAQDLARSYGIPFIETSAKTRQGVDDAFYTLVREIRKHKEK
Chain of KRAS G12V (P62937 whole entry): as the sequence (P62937 whole entry) above
Chain of KRAS G12D (P01116-2 other isoform, or with tags, fused parts or gaps G12D): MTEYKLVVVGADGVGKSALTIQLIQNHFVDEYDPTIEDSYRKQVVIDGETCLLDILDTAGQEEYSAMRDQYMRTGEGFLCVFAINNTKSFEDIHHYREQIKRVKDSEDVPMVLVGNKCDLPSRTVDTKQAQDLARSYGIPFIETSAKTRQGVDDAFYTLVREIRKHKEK
Chain of KRAS G12D (P62937 whole entry): as the sequence (P62937 whole entry) above
Chain of NRAS G12C (P01111 whole entry G12C): as the sequence (P01111 whole entry Q61K) above, with G12C, K61Q counted along it
Chain of NRAS G12C (P62937 whole entry): as the sequence (P62937 whole entry) above
Chain of K-Ras G12C (P01116-2 other isoform, or with tags, fused parts or gaps G12C): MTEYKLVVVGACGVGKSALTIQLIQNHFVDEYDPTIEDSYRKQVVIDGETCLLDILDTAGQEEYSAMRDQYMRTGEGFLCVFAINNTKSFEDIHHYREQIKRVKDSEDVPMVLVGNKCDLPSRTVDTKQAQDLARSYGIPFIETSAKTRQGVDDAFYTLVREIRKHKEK
Chain of K-Ras G12C (P62937 whole entry): as the sequence (P62937 whole entry) above
Chain of NRAS WT (P01111 whole entry): as the sequence (P01111 whole entry Q61K) above, with K61Q counted along it
Chain of NRAS WT (P62937 whole entry): as the sequence (P62937 whole entry) above

| SMILES | pIC50 [1] | pIC50 [2, 8] | pIC50 [3, 9] | pIC50 [4, 10] | pIC50 [5, 11] | pIC50 [6] | pIC50 [7] | IC50 ([1]; read-out: Additional H358 Cell Viability assay data (K-Ras G12C, IC50, uM), NCI-H358, 5-day treatment) [µM] | pIC50 ([2]; IC50* KRAS G12C FRET data) | pIC50 ([3]; KRAS G12D FRET data IC50, Ras-Raf disruption/FRET/MOA assay) | pIC50 ([4]; IC50* KRAS G12V FRET data) | pIC50 ([5]; IC50* NRAS G12C FRET data) |
| --- | --- | --- | --- | --- | --- | --- | --- | --- | --- | --- | --- | --- |
| C=CC(=O)N1CCO[C@H]2CN(C(=O)N(C)[C@H](C(=O)N[C@H]3Cc4cccc(n4)-c4ccc5c(c4)c(c(-c4cccnc4[C@H](C)OC)n5CC(F)(F)F)CC(C)(C)COC(=O)[C@@H]4CCCN(N4)C3=O)C(C)C)C[C@H]21 (atropisomer, axis not shown) [Example A595] | > 8.00 | 7.00 to 8.00 | 5.00 to 6.00 | 5.00 to 6.00 | 7.00 to 8.00 | 6.00 to 7.00 | 6.00 to 7.00 | – | – | – | – | – |
| CCn1c(-c2cccnc2[C@H](C)OC)c2c3cc(ccc31)-c1nc(co1)C[C@H](NC(=O)[C@@H](COC1CN(C(=O)C#CC(C)(C)N(C)C)C1)C(C)C)C(=O)N1CCC[C@H](N1)C(=O)OCC(C)(C)C2 (atropisomer, axis not shown) [Example A675, (2R)-2-(((1-(4-(dimethylamino)-4-methylpent-2-ynoyl)azetidin-3-yl)oxy)methyl)-N-((6^3S,4S,Z)-1^1-ethyl-1^2-(2-((S)-1-methoxyethyl)pyridin-3-yl)-10,10-dimethyl-5,7-dioxo-6^1,6^2,6^3,6^4,6^5,6^6-hexahydro-1^1H-8-oxa-2(2,4)-oxazola-1(5,3)-indola-6(1,3)-pyridazinacycloundecaphane-4-yl)-3-methylbutanamide] | > 8.00 | 7.00 to 8.00 | < 5.00 | < 5.00 | 7.00 to 8.00 | < 5.00 | < 5.00 | – | – | – | – | – |
| C=CC(=O)N1CCO[C@H]2CN(C(=O)N(C)[C@H](C(=O)N[C@H]3Cc4cc(C(F)F)cc(n4)-c4ccc5c(c4)c(c(-c4cccnc4[C@H](C)OC)n5CC(F)(F)F)CC(C)(C)COC(=O)[C@@H]4CCCN(N4)C3=O)C(C)C)C[C@H]21 (atropisomer, axis not shown) [Example A540] | – | – | – | – | – | 5.00 to 6.00 | 5.00 to 6.00 | < 0.01 | 6.00 to 7.00 | < 5.00 | 5.00 to 6.00 | 6.00 to 7.00 |
| C=CC(=O)N(C)C[C@@H]1CCN(C(=O)N(C)[C@H](C(=O)N[C@H]2Cc3nc(cs3)-c3ccc4c(c3)c(c(-c3cccnc3[C@H](C)OC)n4CC)CC(C)(C)COC(=O)[C@@H]3CCCN(N3)C2=O)C(C)C)C1 (atropisomer, axis not shown) [Example A654] | 7.00 to 8.00 | 6.00 to 7.00 | 6.00 to 7.00 | 6.00 to 7.00 | 7.00 to 8.00 | 7.00 to 8.00 | 6.00 to 7.00 | – | – | – | – | – |
| C=CC(=O)N1CCN(C(=O)N(C)[C@H](C(=O)N[C@H]2Cc3nc(cs3)-c3ccc4c(c3)c(c(-c3cccnc3[C@H](C)OC)n4CC)CC(C)(C)COC(=O)[C@@H]3CCCN(N3)C2=O)C(C)C)CC1 (atropisomer, axis not shown) [Example A491] | > 8.00 | 7.00 to 8.00 | 6.00 to 7.00 | 7.00 to 8.00 | 7.00 to 8.00 | 7.00 to 8.00 | 7.00 to 8.00 | – | – | – | – | – |
| C=CC(=O)N(C)CC1CN(C(=O)N(C)[C@H](C(=O)N[C@H]2Cc3nc(cs3)-c3ccc4c(c3)c(c(-c3cccnc3[C@H](C)OC)n4CC)CC(C)(C)COC(=O)[C@@H]3CCCN(N3)C2=O)C(C)C)C1 (atropisomer, axis not shown) [Example A368] | > 8.00 | 7.00 to 8.00 | 6.00 to 7.00 | 7.00 to 8.00 | 7.00 to 8.00 | 7.00 to 8.00 | 7.00 to 8.00 | – | – | – | – | – |
| CO[C@@H](COC1CN(C(=O)C#CC(C)(C)N(C)C)C1)C(=O)N[C@H]1Cc2coc(n2)-c2ccc3c(c2)c(c(-c2cccnc2[C@H](C)OC)n3CC(F)(F)F)CC(C)(C)COC(=O)[C@@H]2CCCN(N2)C1=O (atropisomer, axis not shown) [Example A579] | > 8.00 | > 8.00 | < 5.00 | 5.00 to 6.00 | > 8.00 | < 5.00 | 5.00 to 6.00 | – | – | – | – | – |
| C=CC(=O)N(C)[C@@H]1CCN(C(=O)N(C)[C@H](C(=O)N[C@H]2Cc3nc(cs3)-c3ccc4c(c3)c(c(-c3cccnc3[C@H](C)OC)n4CC)CC(C)(C)COC(=O)[C@@H]3CCCN(N3)C2=O)C(C)C)C1 (atropisomer, axis not shown) [Example A416] | > 8.00 | 7.00 to 8.00 | 5.00 to 6.00 | 6.00 to 7.00 | 6.00 to 7.00 | 7.00 to 8.00 | 6.00 to 7.00 | – | – | – | – | – |
| CCn1c(-c2cccnc2[C@H](C)OC)c2c3cc(ccc31)N1CCC[C@@H](C[C@H](NC(=O)[C@H](C(C)C)N(C)C(=O)C3(F)CCN(C(=O)C#CC(C)(C)N(C)C)CC3)C(=O)N3CCC[C@H](N3)C(=O)OCC(C)(C)C2)C1 (atropisomer, axis not shown) [Example A615] | > 8.00 | 7.00 to 8.00 | < 5.00 | < 5.00 | 7.00 to 8.00 | < 5.00 | < 5.00 | – | – | – | – | – |
| C=CC(=O)N(C)C1CCN(C(=O)N(C)[C@H](C(=O)N[C@H]2Cc3nc(cs3)-c3ccc4c(c3)c(c(-c3cccnc3[C@H](C)OC)n4CC)CC(C)(C)COC(=O)[C@@H]3CCCN(N3)C2=O)C(C)C)CC1 (atropisomer, axis not shown) [Example A383] | > 8.00 | 7.00 to 8.00 | 6.00 to 7.00 | 7.00 to 8.00 | 7.00 to 8.00 | 7.00 to 8.00 | 7.00 to 8.00 | – | – | – | – | – |
| C=CC(=O)N1CC[C@H](C(=O)N(C)[C@H](C(=O)N[C@H]2Cc3coc(n3)-c3ccc4c(c3)c(c(-c3cccnc3[C@H](C)OC)n4CC)CC(C)(C)COC(=O)[C@@H]3CCCN(N3)C2=O)C(C)C)C1 (atropisomer, axis not shown) [Example A468] | 7.00 to 8.00 | 6.00 to 7.00 | < 5.00 | 5.00 to 6.00 | 6.00 to 7.00 | 5.00 to 6.00 | 5.00 to 6.00 | – | – | – | – | – |
| C=CC(=O)N1CC[C@H](C(=O)N(C)[C@H](C(=O)N[C@H]2Cc3nc(cs3)-c3ccc4c(c3)c(c(-c3cccnc3[C@H](C)OC)n4CC(F)(F)F)CC(C)(C)COC(=O)[C@@H]3CCCN(N3)C2=O)C(C)C)C1 (atropisomer, axis not shown) [Example A502] | > 8.00 | 6.00 to 7.00 | 5.00 to 6.00 | 5.00 to 6.00 | 6.00 to 7.00 | 6.00 to 7.00 | 6.00 to 7.00 | – | – | – | – | – |
| CO[C@@H](C)c1ncccc1-c1c2c3cc(ccc3n1CC(F)(F)F)-c1cnc(o1)C[C@H](NC(=O)[C@H](C(C)C)N(C)C(=O)[C@H]1CCN(C(=O)C#CC(C)(C)N(C)C)C1)C(=O)N1CCC[C@H](N1)C(=O)OCC(C)(C)C2 (atropisomer, axis not shown) [Example A707] | > 8.00 | > 8.00 | 5.00 to 6.00 | 5.00 to 6.00 | > 8.00 | < 5.00 | 5.00 to 6.00 | – | – | – | – | – |
| CCn1c(-c2cccnc2[C@H](C)OC)c2c3cc(ccc31)-c1csc(n1)C[C@H](NC(=O)C[C@@H]1COC3(CN(C(=O)C#CC(C)(C)N(C)C)C3)O1)C(=O)N1CCC[C@H](N1)C(=O)OCC(C)(C)C2 (atropisomer, axis not shown) [Example A691] | > 8.00 | > 8.00 | 5.00 to 6.00 | 5.00 to 6.00 | > 8.00 | 5.00 to 6.00 | 5.00 to 6.00 | – | – | – | – | – |
